Laboratory results taken from patent US12704459B2, “Methods, compositions, and kits for assay signal amplification” (MESO SCALE TECHNOLOGIES, LLC., priority 2021, dated 2026).

What was measured:
[1] = test system: anti-SULFO-TAG antibody clones; assay: Competition assay: ligands SM, Bpy or A against TAG compound binding; design: species or system mouse; conditions: 2 μM of ligand
Description: FIGS. 20A-20I show the results of exemplary competitive binding assays between the TAG compounds shown in FIG. 18A and the SM, Bpy, or A ligands shown in FIG. 18A, with the anti-SULFO-TAG antibody clones described in Example 4. The graphs show the remaining ECL signal after anti-SULFO-TAG antibodies were exposed to 2 μM of each ligand, then varying concentrations of each of the TAG compounds. Lower ECL signal is indicative of stronger binding affinity to a particular ligand. The three panels in the right-most column show ECL signals from exposing the anti-SULFO-TAG antibody clones to 10 nM of the TAG compounds alone (without ligands).
To further verify the role of ligands in antibody recognition, the antibodies were coated on MSD® 96-well Small Spot Streptavidin plates and first exposed to 2 μM of ligands SM, Bpy, or A, then exposed to different concentrations of the TAG compounds as a competition assay.

[2] = ECL generation of free TAG compounds spiked into ECL read buffer; type: physicochemical; conditions: free TAG compound in ECL read buffer, 96-well bare carbon plates
Description: An epitope recognition study was performed on the eleven anti-SULFO-TAG antibody clones described in Example 4. To study the epitope recognition of these antibody clones, four organometallic Ru^2+ compounds (“TAG compounds”) with varying numbers of sulfomethyl-bipyridine (“SM”) or bipyridine (“Bpy”) ligands as shown in FIG. 18A were prepared. The SULFO-TAG is denoted as Ru^+2(SM)2A1, which includes an acid ligand (“A”) in one of the Bpy groups and is more similar in structure with Bpy than SM. ECL generation from each TAG compound was verified by spiking the TAG compounds into ECL read buffer, and the ECL signal from each free TAG compound was measured on 96-well bare carbon plates. […] The Ru(Bpy)3 ECL signal, when normalized for concentration, would be 248,576 ECL units, similar to the other TAG compounds.

| Molecule | ligand binding / competition with antibody binding to Ru^+2(SM)3 and SULFO-TAG [1] | ECL signal, normalized for concentration [2] |
| --- | --- | --- |
| c1ccc(-c2ccccn2)nc1 [Bpy, bipyridine] | unable to significantly outcompete antibody binding | – |
| [Ru+2].c1ccc(-c2ccccn2)nc1.c1ccc(-c2ccccn2)nc1.c1ccc(-c2ccccn2)nc1 [Ru(Bpy)3] | – | 248,576 ECL units |
| sulfomethyl-bipyridine [SM] | strongest binding | – |
